Where two headings read alike, the source gives them in different places.
Tests used:
[1] = target: T1, rat FPT (Rattus norvegicus, UniProt Q02293+Q04631); test: PFT Inhibitory Activity (protein farnesyl transferase); assay type: biochemical; conditions: 30° C., 30 minutes
T1 construct: made in house; host or cells: Sf9 insect cells
Description: The protein farnesyl transferase (PFT) or farnesyl protein transferase (FPT) inhibitory activity of compounds of the present invention were assayed in HEPES buffer (pH 7.4) containing 5 mM potassium phosphate and 20 μM ZnCl2. The solution also contained 5 mM DTT (dithiothreitol), 5 mM MgCl2, and 0.1% PEG 8000. Assays were performed in 96-well plates (Wallec, Finland) and employed solutions composed of varying concentrations of a compound of the present invention in 10% DMSO (dimethylsulfoxide). Upon addition of both substrates, radiolabeled farnesyl pyrophosphate ([1^3 H], specific activity 15-30 Ci/mmol, final concentration 134 nM) and (biotinyl)-Ahe-Thr-Lys-Cys-Val-Ile-Met ([3aS[3a α, 4 β, 6a α]-hexahydro-2-oxo-1H-thieno[3,4-d]imidazole-5-pentanoicacid]-[7-aminoheptanoic acid]-Thr-Lys-Cys-Val-Ile-Met). Ahe is 7-aminoheptanoic acid, Thr is threonine, Lys is lysine, Cys is cysteine, Val is valine, Ile is isoleucine, and Met is methionine (final concentration 0.2 μM); the enzyme reaction was started by addition of SF9 affinity purified rat FPT. After incubation at 30° C. for 30 minutes, the reaction was terminated by diluting the reaction 2.5-fold with a stop buffer containing 1.5 M magnesium acetate, 0.2 M H3 PO4, 0.5% BSA (bovine serum albumin), and strepavidin beads (Amersham, Arlington Heights, Ill.) at a concentration of 1.3 mg/mL. After allowing the plate to settle for 30 minutes at room temperature, radioactivity was quantitated on a microBeta counter (Model 1450, Wallec, Finland). The assay was also carried out without 5 mM potassium phosphate.

[2] = test system: ras protein in ras-transformed cells; test: Mobility Shift Assay (ras farnesylation in ras-transformed cells); assay type: cell-based; conditions: 18-hour incubation, read-out: Mobility Shift MED
Description: Twenty-four hours after planting 2×10^6 ras-transformed cells per treatment condition, the farnesylation inhibitor is added at varying concentrations. Following an 18-hour incubation period, cells are lysed in phosphate-buffered saline containing 1% Triton X-100, 0.5% sodium deoxycholate, and 0.1% SDS (sodium dodecyl sulfate), pH 7.4 in the presence of several protease inhibitors (PMSF (phenylmethylsulfonylfluoride), antipain, leupeptin, pepstatin A, and aprotinin all at 1 μg/mL). Ras protein is immunoprecipitated from the supernatants by the addition of 3 μg v-H-ras Ab-2 (Y13-259 antibody from Oncogene Science, Cambridge, Mass.). After overnight immunoprecipitation, 30 μL of a 50% protein G-Sepharose slurry (Pharmacia, Uppsala, Sweden) is added followed by 45-minute incubation. Pellets are resuspended in 2X tris-glycine loading buffer (Novex, San Diego, Calif.) containing 5% mercaptoethanol and then denatured by 5 minutes boiling prior to electrophoresis on 14% Tris-glycine SDS gels. Using Western transfer techniques, proteins are transferred to nitrocellulose membranes followed by blocking in blocking buffer. Upon overnight incubation with primary antibody (pan-ras Ab-2 from Oncogene Science, Cambridge, Mass.), an antimouse HRP (horseradish peroxidase) conjugate secondary antibody (Amersham) is employed for detection of the ras protein. Blots are developed using ECL (enhanced chemiluminescence) techniques (Amersham, Arlington Heights, Ill.).

[3] = test system: human colon carcinoma; conditions: 100 mg/kg, xenografts in nude mice; cited from earlier work
[4] = test system: HT1080 human fibrosarcoma; conditions: 100 mg/kg, xenografts in nude mice; cited from earlier work
[5] = test system: EJ-1 human bladder carcinoma; conditions: 100 mg/kg, xenografts in nude mice; cited from earlier work
[6] = test system: human lung carcinoma with K-ras mutation and p53 deletion; conditions: nude mice; cited from earlier work
[7] = test system: mammary and salivary carcinomas in ras transgenic mice; conditions: daily administration; cited from earlier work
[8] = HEPES buffer pH 7.4 with 5 mM potassium phosphate, read-out: IC50 (μM) Hepes + 5 mM Phosphate
[9] = HEPES buffer pH 7.4 without 5 mM potassium phosphate, read-out: IC50 (μM) Hepes

Compound	IC50 [1, 8] [µM]	IC50 [1, 9] [µM]	minimal effective concentration [2] [µM]	further results
O=c1cc(-c2ccccc2)c2ccc(OC(Cn3ccnc3)c3ccccc3)cc2o1 (stereo not drawn) [Example 5, 7-(2-Imidazol-1-yl-1-phenyl-ethoxy)-4-phenyl-chromen-2-one]	0.8	0.74	0.2	–
O=c1cc(-c2cccc(Cl)c2)c2ccc(OC(Cn3ccnc3)c3ccccc3)cc2o1 (stereo not drawn) [Example 6, 4-(3-Chloro-phenyl)-7-(2-imidazol-1-yl-1-phenyl-ethoxy)-chromen-2-one]	0.32	0.29	1	–
C=CCc1c(OC(Cn2ccnc2)c2ccccc2)ccc2c(-c3ccccc3)cc(=O)oc12 (stereo not drawn) [Example 12, 8-allyl-7-(2-imidazol-1-yl-1-phenyl-ethoxy)-4-phenyl-chromen-2-one]	0.64	0.63	> 1	–
COC(=O)[C@H](CCSC)NC(=O)[C@H](/C=C\[C@@H](/C=C/[C@@H](N)CS)C(C)C)Cc1ccccc1 [Example B1086]	–	–	–	tumor growth inhibition [3]: inhibit tumor growth; tumor growth inhibition [4]: inhibit tumor growth; tumor growth inhibition [5]: inhibit tumor growth
CSCC[C@H](NC(=O)c1ccc(NC[C@@H](N)CS)cc1-c1ccccc1)C(=O)O [FT1276]	–	–	–	block of tumor growth [6]: selectively block tumor growth
CC[C@H](C)[C@@H](CO[C@@H](Cc1ccccc1)C(=O)N[C@@H](CCS(C)(=O)=O)C(=O)OC(C)C)NC[C@@H](N)CS [L-744,832]	–	–	–	tumor regression [7]: caused tumor regression

Continued by falling IC50 [1, 8], values first:

IC50 [1, 8] [µM]	IC50 [1, 9] [µM]	Compound	minimal effective concentration [2] [µM]	further results
3.6	9.8	Cn1c(=O)cc(-c2cccc(Cl)c2)c2cc(OCc3c[nH]cn3)ccc21 [Example 3, 4-(3-Chloro-phenyl)-6-(1H-imidazol-4-ylmethoxy)-1-methyl-1H-quinolin-2-one]	–	–
1.8	1.7	Cn1cncc1C(Oc1ccc2c(c1)c(-c1cccc(Cl)c1)cc(=O)n2C)c1ccccc1 (stereo not drawn) [Example 4, 4-(3-Chloro-phenyl)-1-methyl-6-[(3-methyl-3H-imidazol-4-yl)-phenyl-methoxy]-1H-quinolin-2-one]	–	–
1.6	1.8	O=c1cc(-c2ccc(Cl)cc2)c2ccc(OC(Cn3ccnc3)c3ccccc3)cc2o1 (stereo not drawn) [Example 9, 4-(4-Chloro-phenyl)-7-(2-imidazol-1-yl-1-phenyl-ethoxy)-chromen-2-one]	–	–
1.4	0.5	Cc1cccc(-c2cc(=O)oc3cc(OC(Cn4ccnc4)c4ccccc4)ccc23)c1 (stereo not drawn) [Example 7, 7-(2-Imidazol-1-yl-1-phenyl-ethoxy)-4-m-tolyl-chromen-2-one]	–	–
0.99	0.7	Cn1c(=O)cc(-c2cccc(Cl)c2)c2ccc(OC(Cn3ccnc3)c3ccccc3)cc21 (stereo not drawn) [Example 2, 4-(3-Chloro-phenyl)-7-(2-imidazol-1-yl-1-phenyl-ethoxy)-1-methyl-1H-quinolin-2-one]	> 1	–
0.92	0.98	Cc1ccccc1-c1cc(=O)oc2cc(OC(Cn3ccnc3)c3ccccc3)ccc12 (stereo not drawn) [Example 8, 7-(2-Imidazol-1-yl-1-phenyl-ethoxy)-4-o-tolyl-chromen-2-one]	–	–
0.52	0.67	Cc1ccc(-c2cc(=O)oc3cc(OC(Cn4ccnc4)c4ccccc4)ccc23)cc1 (stereo not drawn) [Example 11, 7-(2-imidazol-1-yl-1-phenyl-ethoxy)-4-p-totyl-chromen-2-one]	1	–
0.29	0.14	O=c1cc(-c2ccccc2Cl)c2ccc(OC(Cn3ccnc3)c3ccccc3)cc2o1 (stereo not drawn) [Example 10, 4-(2-Chloro-phenyl)-7-(2-imidazol-1-yl-1-phenyl-ethoxy)-chromen-2-one]	> 0.2	–
0.068	0.064	Cn1c(=O)cc(-c2cccc(Cl)c2)c2cc(OC(Cn3ccnc3)c3ccccc3)ccc21 (stereo not drawn) [Example 1, 4-(3-Chloro-phenyl)-6-(2-imidazol-1-yl-1-phenyl-ethoxy)-1-methyl-1H-quinolin-2-one]	1	–

Reference: US6143766A, “Benzopyranone and quinolone inhibitors of ras farnesyl transferase” (Warner-Lambert Company, priority 2000, dated 2000)
